# “And” between values parts separate entries of the source, which are not always exact repeats. Equal entries are not always repeated. Where two headings read alike, the source gives them in different places. Positions of bridges follow the written chain, without caps; N, C: chain ends. Non-standard residues stand in square brackets, D forms with d. Residues, ends and D or L forms follow the SMILES beside them.
# Tests used:
# [1] = target: T1, NgTet1 (Naegleria gruberi, UniProt D2W6T1); assay: biochemical
# T1 construct: His6-tagged full-length Naegleria gruberi NgTet1 (321 a. a.) protein with a thrombin cleavage site; made in house; host or cells: E. coli BL21(DE3)
# T1 sequence (D2W6T1 1-321): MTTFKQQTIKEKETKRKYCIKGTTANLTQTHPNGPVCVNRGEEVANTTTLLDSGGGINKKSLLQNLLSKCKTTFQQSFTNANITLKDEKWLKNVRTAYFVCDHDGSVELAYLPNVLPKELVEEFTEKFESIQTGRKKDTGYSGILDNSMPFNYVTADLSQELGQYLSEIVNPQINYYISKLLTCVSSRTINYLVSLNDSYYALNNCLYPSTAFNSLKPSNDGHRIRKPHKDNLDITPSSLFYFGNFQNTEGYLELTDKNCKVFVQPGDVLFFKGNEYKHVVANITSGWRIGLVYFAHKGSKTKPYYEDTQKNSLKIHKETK
# Procedure: (Fig. 5a), were screened for inhibitory activity against NgTet1.
# (§1) Activity was normalised against reactions containing vehicle (DMSO). […] AS data shown as the mean of three experimental replicates (n = 3; mean ± SD); ^1H NMR data plotted from two independent replicates (n = 2); tabulated data reported as the mean of two and three independent replicates for ^1H NMR and AS, respectively (n = 2–3, SD reported for n = 3). N. d.: not determined; AS: AlphaScreen.
# Compounds in DMSO (100 nL) were pre-dispensed in a logarithmically linear concentration gradient onto 384-well ProxiPlates using an Echo® 550 acoustic liquid handler (Labcyte). NgTet1 was pre-incubated with the inhibitor dilution series in DMSO at room temperature for 10 min. Reactions were initiated by the addition of appropriate cofactors and DNA. […] The reactions were quenched by the addition of 30 mM EDTA (pH 4.2), 358 mM NaCl (5 μL) within the enzyme linear activity window (determined in Fig. S10). Concurrently, a mixture containing the anti-^5hmC antibody (1:2000 dilution) and AlphaScreen beads (1:62.5 dilution) in assay buffer was prepared and incubated at room temperature for 30 min. The AlphaScreen bead/antibody mixture was added to the quenched NgTet1 reactions (5 μL), and the complete mixture was incubated at room temperature for 1 h. Chemiluminescence was measured on a PHERAstar FS/FSX (BMG Labtech) equipped with an AlphaScreen 680 570 module. All AlphaScreen bead manipulations were performed under subdued lighting. Inhibition data was normalised to reactions containing vehicle only (1% v/v DMSO) and fitted using “log(inhibitor) vs. response—Variable slope (four parameters)” non-linear regression model on GraphPad Prism 5.
# [2] = target: T1, NgTet1; assay: biochemical; conditions: for normalised activity: NgTet1, NMR, 2 independent replicates
# Procedure: as §1
# All ^1H NMR spectra were recorded at 25 °C using D2O as a reference for internal deuterium lock on a Bruker Avance III 700 MHz equipped with an inverse TCI cryoprobe in 3 or 5 mm diameter tubes with a total sample volume of 160 or 565 μL, respectively. The water signal was reduced using Perfect Echo excitation sculpting suppression. Chemical shifts are reported in ppm relative to D2O (δH = 4.70 ppm).
# NgTet1 was pre-incubated with inhibitor dilution series in DMSO-d6 at room temperature for 10 min (50 mM Tris-d11 [pH 7.5], 2% v/v DMSO-d6). Reactions were initiated by the addition of appropriate cofactors and DNA. […] The reactions were quenched by the addition of 9 mM NOG and 9 mM ZnCl2 in 90 mM Tris-d11 [pH 7.5] (20 μL) within the enzyme linear activity window (determined in Figure. S10). Samples were transferred to NMR tubes and subjected to ^1H NMR analysis. Data were processed as described above. Inhibition data was normalised to reactions containing vehicle only (1% v/v DMSO-d6) and fitted using “log(inhibitor) vs. response - Variable slope (four parameters)” non-linear regression model on GraphPad Prism 5.
# Activity was normalised against reactions containing vehicle only (100% activity). Data is shown as the mean of 2 independent replicates (n = 2; […]
# Fig. S10 Determination of linear NgTet1 enzymatic activity windows for inhibitor characterisation. a 1H NMR succinate detection time courses with no DNA, 5HC DNA (double- […]
# complementary 5'-ACC AC5mC GGT GGT-3'). b AlphaScreen 5hmC detection time course using […]
# courses shown. 1H NMR reaction conditions: 5 μM NgTet1, 2 mM sodium L-ascorbate, 100 μM […]
# v/v D2O. DNA was added to a final concentration of 20 μM of double-stranded DNA. […]
smiles,measurement,setting,value
CC[C@H](C)[C@@H]1NC(=O)[C@H](CC(C)C)NC(=O)[C@@H](Cc2ccc(O)cc2)NC(=O)CSC[C@@H](C(N)=O)NC(=O)[C@H](CO)NC(=O)[C@H](Cc2c[nH]cn2)NC(=O)[C@H](CCC(=O)O)NC(=O)[C@H](Cc2c[nH]c3ccccc23)NC(=O)[C@H](Cc2c[nH]c3ccccc23)NC(=O)[C@H]([C@@H](C)O)NC(=O)[C@H](Cc2ccc(O)cc2)NC(=O)[C@H](Cc2ccc(O)cc2)NC(=O)[C@H](C)NC(=O)[C@H](Cc2ccc(O)cc2)NC1=O [TiP1] ({CH2CO}-[dY]LIYAYYTWWEHSC-NH2; thioether N-14),IC50,[1],26.3 µM
same,"normalised activity, %","[1]; AlphaScreen, -Log[inhibitor] (M) 8.73132",115.665% and 99.133% and 91.2094% and 100% and 99.1774% and 99.7728% and 97.6796%
same,uncoupled 2OG decarboxylase activity relative to control,"[2]; 1.2 equivalents (6.17 μM) of ligand, no 5mC DNA substrate",137%
same,"normalised activity, %","[2]; 5mC DNA, NMR, -Log[inhibitor] (M) 3.30103",0.3831% and 0.8644%
same,"normalised activity, %","[2]; 5mC DNA, NMR, -Log[inhibitor] (M) 3.77815",0%
same,"normalised activity, %","[2]; 5mC DNA, NMR, -Log[inhibitor] (M) 4.25527",7.31% and 14.7287%
same,"normalised activity, %","[2]; 5mC DNA, NMR, -Log[inhibitor] (M) 4.73239",78.5121% and 83.5696%
same,"normalised activity, %","[2]; 5mC DNA, NMR, -Log[inhibitor] (M) 5.20951",98.5224% and 104.299%
same,"normalised activity, %","[2]; 5mC DNA, NMR, -Log[inhibitor] (M) 5.68664",102.213% and 96.5096%
same,"normalised activity, %","[2]; 5mC DNA, NMR, -Log[inhibitor] (M) 6.16376",101.348% and 99.8653%
same,"normalised activity, %","[2]; 5mC DNA, NMR, -Log[inhibitor] (M) 6.64088",101.5% and 99.6319%
same,"normalised activity, %","[2]; 5mC DNA, NMR, -Log[inhibitor] (M) 7.118",99.9781% and 101.169%
same,"normalised activity, %","[2]; 5mC DNA, NMR, -Log[inhibitor] (M) 7.59512",101.989% and 101.514%
same,normalised activity,[2]; -Log[inhibitor] (M) 3.30103,1.539% and 0.6062%
same,normalised activity,[2]; -Log[inhibitor] (M) 3.77815,5.644% and 0.04671%
same,normalised activity,[2]; -Log[inhibitor] (M) 4.25527,23.0301% and 11.8368%
same,normalised activity,[2]; -Log[inhibitor] (M) 4.73239,129.261% and 95.1469%
same,normalised activity,[2]; -Log[inhibitor] (M) 5.20951,124.894% and 132.33%
same,normalised activity,[2]; -Log[inhibitor] (M) 5.68664,97.9138% and 111.807%
same,normalised activity,[2]; -Log[inhibitor] (M) 6.16376,101.603% and 106.324%
same,normalised activity,[2]; -Log[inhibitor] (M) 6.64088,102.045% and 105.397%
same,normalised activity,[2]; -Log[inhibitor] (M) 7.118,107.511% and 102.971%
same,normalised activity,[2]; -Log[inhibitor] (M) 7.59512,96.6941%
same,IC50,"[2]; IC50, 5mC DNA, NMR, 2OG decarboxylation with 20 µM 5mC DNA, 5 μM NgTet1, 50 μM 2OG",28.8 µM
same,IC50,"[2]; IC50, No DNA, NMR, uncoupled 2OG decarboxylation, no DNA, 5 μM NgTet1, 50 μM 2OG",26.3 µM
same,IC50,"[2]; IC50 across all assays, AS and 1H NMR assays",26 to 29 µM
same,"normalised activity, %","[2]; No DNA, NMR, -Log[inhibitor] (M) 3.30103",1.539% and 0.6062%
same,"normalised activity, %","[2]; No DNA, NMR, -Log[inhibitor] (M) 3.77815",5.644% and 0.04671%
same,"normalised activity, %","[2]; No DNA, NMR, -Log[inhibitor] (M) 4.25527",23.0301% and 11.8368%
same,"normalised activity, %","[2]; No DNA, NMR, -Log[inhibitor] (M) 4.73239",129.261% and 95.1469%
same,"normalised activity, %","[2]; No DNA, NMR, -Log[inhibitor] (M) 5.20951",124.894% and 132.33%
same,"normalised activity, %","[2]; No DNA, NMR, -Log[inhibitor] (M) 5.68664",97.9138% and 111.807%
same,"normalised activity, %","[2]; No DNA, NMR, -Log[inhibitor] (M) 6.16376",101.603% and 106.324%
same,"normalised activity, %","[2]; No DNA, NMR, -Log[inhibitor] (M) 6.64088",102.045% and 105.397%
same,"normalised activity, %","[2]; No DNA, NMR, -Log[inhibitor] (M) 7.118",107.511% and 102.971%
same,"normalised activity, %","[2]; No DNA, NMR, -Log[inhibitor] (M) 7.59512",96.6941%
same,"normalised activity, %","[2]; TiP1 statistical test, NMR, no DNA, NgTet1/TiP1 ratio 1:1.2, technical replicates",140.602% and 133.857% and 142.6% and 131.935%
same,"normalised activity, %","[2]; TiP1 statistical test, NMR, no DNA, NgTet1/TiP1 ratio 1:3.7, technical replicates",103.459% and 107.449% and 116.09% and 117.125%

# Reference: PMC11662004 (Communications Chemistry, 2024)
